In ChEMBL document CHEMBL1201862, “PubChem BioAssay data set” (2004):
The source made the active and inactive calls.

Tests used:
[1] = microbe, parasite or virus in culture; assay type: functional; conditions: Mycobacterium tuberculosis
[2] = HEp-2 cell cytotoxicity, dose response, cytotoxicity control for RSV inhibitor project, HTS (AID 2410); assay type: functional; conditions: human respiratory syncytial virus
[3] = molecular target: T1, Lysine-specific demethylase 4C (Homo sapiens, UniProt Q9H3R0); experiment: GASC-1 (JMJD2C) histone demethylase inhibitors, dose response, biochemical, DELFIA europium, cherry-picked samples (AID 488835); assay type: functional
T1 sequence (Q9H3R0 whole entry): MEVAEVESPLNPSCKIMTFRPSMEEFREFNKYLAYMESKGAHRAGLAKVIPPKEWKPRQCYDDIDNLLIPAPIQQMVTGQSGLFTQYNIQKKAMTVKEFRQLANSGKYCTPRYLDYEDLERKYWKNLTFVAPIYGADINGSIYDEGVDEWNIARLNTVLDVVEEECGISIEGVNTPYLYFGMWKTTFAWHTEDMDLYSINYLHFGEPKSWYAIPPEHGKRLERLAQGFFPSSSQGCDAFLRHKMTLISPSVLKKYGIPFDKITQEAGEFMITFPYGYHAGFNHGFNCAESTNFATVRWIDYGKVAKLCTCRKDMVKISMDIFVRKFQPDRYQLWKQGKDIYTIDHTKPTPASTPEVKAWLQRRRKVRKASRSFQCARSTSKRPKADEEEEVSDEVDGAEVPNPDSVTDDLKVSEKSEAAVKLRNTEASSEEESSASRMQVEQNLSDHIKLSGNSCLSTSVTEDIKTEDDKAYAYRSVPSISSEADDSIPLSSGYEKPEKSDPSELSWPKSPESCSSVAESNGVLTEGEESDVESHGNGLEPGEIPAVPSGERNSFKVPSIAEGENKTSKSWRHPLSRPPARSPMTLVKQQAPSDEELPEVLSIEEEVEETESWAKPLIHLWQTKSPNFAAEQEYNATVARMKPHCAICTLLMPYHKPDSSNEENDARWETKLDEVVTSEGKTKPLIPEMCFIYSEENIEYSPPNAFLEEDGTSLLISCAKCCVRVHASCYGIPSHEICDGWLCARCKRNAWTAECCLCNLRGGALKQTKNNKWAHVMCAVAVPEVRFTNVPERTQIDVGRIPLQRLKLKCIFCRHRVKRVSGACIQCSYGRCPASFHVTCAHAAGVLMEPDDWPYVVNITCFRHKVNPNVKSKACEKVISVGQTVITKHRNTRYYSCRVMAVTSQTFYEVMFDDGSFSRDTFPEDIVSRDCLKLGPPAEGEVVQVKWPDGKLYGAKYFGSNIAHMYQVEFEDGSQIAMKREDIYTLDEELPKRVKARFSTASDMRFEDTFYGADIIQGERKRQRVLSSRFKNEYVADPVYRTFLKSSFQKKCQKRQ

Nonstructural protein 1 = Nonstructural protein 1 (Influenza A virus, UniProt Q194T2); assay type: functional, Influenza A virus (A/California/07/2009(H1N1))
Chain of Nonstructural protein 1 (Q194T2 whole entry): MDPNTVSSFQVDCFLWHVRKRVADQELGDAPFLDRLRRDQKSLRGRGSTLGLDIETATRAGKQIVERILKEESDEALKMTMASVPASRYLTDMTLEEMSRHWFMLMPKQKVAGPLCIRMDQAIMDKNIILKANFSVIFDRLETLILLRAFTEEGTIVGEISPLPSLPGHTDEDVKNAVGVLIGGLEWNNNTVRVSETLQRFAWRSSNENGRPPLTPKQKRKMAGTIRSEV

[4] = molecular target: T2, Ubiquitin-conjugating enzyme E2 N (Homo sapiens, UniProt P61088); assay type: functional;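 further: Dose-response confirmation in a TR-FRET assay detecting UBC13-driven polyubiquitin chain formation, inhibition measured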
T2 sequence (P61088 whole entry): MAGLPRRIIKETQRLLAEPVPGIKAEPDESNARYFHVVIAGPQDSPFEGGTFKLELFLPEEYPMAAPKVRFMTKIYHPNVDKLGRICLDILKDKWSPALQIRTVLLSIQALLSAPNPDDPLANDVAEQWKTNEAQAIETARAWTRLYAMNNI

Caspase-6 = molecular target: T3, Caspase-6 (Homo sapiens, UniProt P55212); experiment: human caspase-6 inhibitors, dose response, biochemical, VEID-R110 fluorescence, cherry-pick (AID 720632)
T3 sequence (P55212 whole entry): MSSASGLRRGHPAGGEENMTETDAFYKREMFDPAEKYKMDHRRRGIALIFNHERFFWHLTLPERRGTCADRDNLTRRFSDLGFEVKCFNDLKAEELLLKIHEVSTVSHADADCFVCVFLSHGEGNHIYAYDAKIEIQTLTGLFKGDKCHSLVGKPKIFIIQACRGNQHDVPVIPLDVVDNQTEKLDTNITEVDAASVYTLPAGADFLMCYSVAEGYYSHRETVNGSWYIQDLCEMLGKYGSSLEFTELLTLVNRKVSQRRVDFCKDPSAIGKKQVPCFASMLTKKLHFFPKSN

[5] = molecular target: T4, Carboxy-terminal domain RNA polymerase II polypeptide A small phosphatase 1 (Homo sapiens, UniProt Q9GZU7); experiment: inhibitors of CTDSP1, concentration-response testing, biochemical assay, absorbance-based, actives from ultra-high-throughput screening (AID 540297); assay type: functional
T4 sequence (Q9GZU7 whole entry): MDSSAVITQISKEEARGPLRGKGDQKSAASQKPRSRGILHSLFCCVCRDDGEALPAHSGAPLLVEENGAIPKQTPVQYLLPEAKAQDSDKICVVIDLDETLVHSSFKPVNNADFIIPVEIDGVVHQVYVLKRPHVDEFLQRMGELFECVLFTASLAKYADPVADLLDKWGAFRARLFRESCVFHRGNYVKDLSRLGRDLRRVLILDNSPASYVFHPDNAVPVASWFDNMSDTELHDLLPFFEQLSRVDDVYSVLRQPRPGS

[6] = molecular target: Voltage-dependent T-type calcium channel subunit alpha-1H (Homo sapiens, UniProt O95180); assay type: functional;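 further: channel activity triggered by adding a high calcium stimulation buffer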
Chain of Voltage-dependent T-type calcium channel subunit alpha-1H (O95180 whole entry): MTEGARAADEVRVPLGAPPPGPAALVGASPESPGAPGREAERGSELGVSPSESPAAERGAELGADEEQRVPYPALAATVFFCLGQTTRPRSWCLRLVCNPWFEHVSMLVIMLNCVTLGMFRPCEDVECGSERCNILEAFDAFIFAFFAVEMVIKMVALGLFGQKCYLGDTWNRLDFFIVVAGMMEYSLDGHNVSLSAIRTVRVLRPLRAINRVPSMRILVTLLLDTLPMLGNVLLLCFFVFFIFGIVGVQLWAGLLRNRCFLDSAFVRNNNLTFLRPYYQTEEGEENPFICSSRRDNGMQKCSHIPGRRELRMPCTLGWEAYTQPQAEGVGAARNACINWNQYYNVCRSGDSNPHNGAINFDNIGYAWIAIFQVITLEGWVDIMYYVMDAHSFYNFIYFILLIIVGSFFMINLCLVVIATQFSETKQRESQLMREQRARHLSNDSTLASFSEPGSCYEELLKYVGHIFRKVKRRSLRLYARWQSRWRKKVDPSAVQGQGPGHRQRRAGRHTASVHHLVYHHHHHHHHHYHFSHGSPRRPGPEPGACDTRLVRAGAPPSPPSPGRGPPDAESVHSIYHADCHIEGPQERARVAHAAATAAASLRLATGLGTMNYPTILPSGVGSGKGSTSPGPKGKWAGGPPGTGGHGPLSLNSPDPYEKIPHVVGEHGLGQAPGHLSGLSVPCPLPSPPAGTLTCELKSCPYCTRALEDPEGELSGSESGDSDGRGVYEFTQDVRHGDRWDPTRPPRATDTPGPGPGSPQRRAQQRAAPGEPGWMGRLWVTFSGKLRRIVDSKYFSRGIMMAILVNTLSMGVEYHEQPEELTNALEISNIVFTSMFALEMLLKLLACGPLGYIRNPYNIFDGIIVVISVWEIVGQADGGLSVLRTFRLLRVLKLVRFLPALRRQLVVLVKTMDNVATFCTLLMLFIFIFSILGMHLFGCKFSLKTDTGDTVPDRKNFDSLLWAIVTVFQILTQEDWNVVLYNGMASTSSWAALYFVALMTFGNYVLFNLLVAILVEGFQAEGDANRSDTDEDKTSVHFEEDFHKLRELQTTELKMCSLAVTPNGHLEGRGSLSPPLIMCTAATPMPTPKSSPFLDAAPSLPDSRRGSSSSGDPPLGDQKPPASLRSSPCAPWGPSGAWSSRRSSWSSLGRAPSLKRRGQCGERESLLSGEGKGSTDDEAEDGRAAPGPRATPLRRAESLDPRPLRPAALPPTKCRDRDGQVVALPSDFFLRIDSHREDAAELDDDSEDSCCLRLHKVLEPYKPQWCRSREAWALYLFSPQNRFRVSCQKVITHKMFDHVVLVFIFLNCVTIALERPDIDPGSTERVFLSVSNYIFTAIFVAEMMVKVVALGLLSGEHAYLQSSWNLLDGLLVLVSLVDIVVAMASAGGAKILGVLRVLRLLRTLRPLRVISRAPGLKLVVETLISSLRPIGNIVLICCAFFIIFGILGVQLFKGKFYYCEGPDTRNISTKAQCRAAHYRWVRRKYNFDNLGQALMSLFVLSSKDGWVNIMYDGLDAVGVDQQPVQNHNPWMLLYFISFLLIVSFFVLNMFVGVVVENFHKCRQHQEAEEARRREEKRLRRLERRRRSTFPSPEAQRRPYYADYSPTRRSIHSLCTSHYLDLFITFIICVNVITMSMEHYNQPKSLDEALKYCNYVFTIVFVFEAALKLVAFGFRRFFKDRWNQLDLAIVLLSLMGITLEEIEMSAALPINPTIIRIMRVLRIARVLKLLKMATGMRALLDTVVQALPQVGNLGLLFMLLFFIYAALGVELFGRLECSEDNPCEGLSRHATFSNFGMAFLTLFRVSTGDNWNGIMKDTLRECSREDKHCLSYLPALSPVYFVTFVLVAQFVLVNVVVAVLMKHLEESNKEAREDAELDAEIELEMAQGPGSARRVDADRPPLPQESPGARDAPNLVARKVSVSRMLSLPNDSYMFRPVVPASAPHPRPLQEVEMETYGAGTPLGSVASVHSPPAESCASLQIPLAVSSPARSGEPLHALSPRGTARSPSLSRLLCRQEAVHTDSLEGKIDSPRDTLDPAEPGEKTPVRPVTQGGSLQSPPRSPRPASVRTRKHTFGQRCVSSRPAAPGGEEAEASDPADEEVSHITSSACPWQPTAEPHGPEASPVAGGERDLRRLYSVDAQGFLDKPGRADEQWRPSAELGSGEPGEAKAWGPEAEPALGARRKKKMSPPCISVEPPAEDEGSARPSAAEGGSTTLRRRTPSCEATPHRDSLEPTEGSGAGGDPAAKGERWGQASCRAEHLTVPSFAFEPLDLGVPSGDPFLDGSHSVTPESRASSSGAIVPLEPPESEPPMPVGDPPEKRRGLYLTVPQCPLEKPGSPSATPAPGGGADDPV

[7] = HepG2 cell cytotoxicity, dose response, cytotoxicity control for Shn3 inhibitor project, CellTiter-Glo, cherry-picked (AID 624134); assay type: functional, cell-based
[8] = control 3'UTR Renilla luciferase suppression, dose response, counter-screen for Shn3 inhibitor project, cell-based, Clone20-Shn3RL, cherry-picked (AID 624133); assay type: functional
Vero = experiment: cells; assay type: functional; conditions: Chlorocebus sabaeus
[9] = Shn3 3'UTR reporter inhibitors, dose response, cell-based, Clone20 osteoblasts, firefly luciferase, cherry-picked (AID 624132); assay type: functional;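 further: firefly luciferase luminescence from reporter carrying the Shn3 3'UTR in osteoblasts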
[10] = ZM109 Env clade C HIV-1 fusion inhibitors, dose response, HeLa effector, CEM target cells, luciferase, cherry-pick (AID 652058); assay type: functional, cell-based
[11] = off-target signal loss in HeLa-CEM21 co-culture – HeLa F-luc CTL cells, cherry-picked, counter-screen for HIV-1 Env fusion inhibitor project, dose response (AID 652040); assay type: functional, cell-based;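 further: potency for signal decrease marking cytotoxic or nonspecific inhibition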
[12] = inhibitors of HIV Env-driven cell fusion, dose response, cherry-pick (AID 652057); assay type: functional, cell-based
[13] = inhibitors of clade B AD8 Env fusion, dose response, cell-based, cherry-pick (AID 652062); assay type: functional;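 further: luciferase signal from cell-cell fusion driven by HIV-1 clade B AD8 Env; potency is for inhibitors of fusion seen as a drop in luminescence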
[14] = HepG2 cell cytotoxicity, dose response, cytotoxicity control, cherry-picked samples (AID 1159577); assay type: functional, cell-based
[15] = P. falciparum Dd2 growth inhibitors, dose response, SYBR Green, cherry-picked samples (AID 1159567); assay type: functional, cell-based
Paired box protein Pax-8 = Paired box protein Pax-8 (Homo sapiens, UniProt Q06710); experiment: inhibitors of PAX8-driven TPO luciferase reporter, dose response, RMG-I cells, cherry-pick (AID 687027); assay type: functional, cell-based;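 further: luciferase reporter driven by Pax8 target thyroperoxidase promoter measured by SteadyGlo luminescence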
Chain of Paired box protein Pax-8 (Q06710 whole entry): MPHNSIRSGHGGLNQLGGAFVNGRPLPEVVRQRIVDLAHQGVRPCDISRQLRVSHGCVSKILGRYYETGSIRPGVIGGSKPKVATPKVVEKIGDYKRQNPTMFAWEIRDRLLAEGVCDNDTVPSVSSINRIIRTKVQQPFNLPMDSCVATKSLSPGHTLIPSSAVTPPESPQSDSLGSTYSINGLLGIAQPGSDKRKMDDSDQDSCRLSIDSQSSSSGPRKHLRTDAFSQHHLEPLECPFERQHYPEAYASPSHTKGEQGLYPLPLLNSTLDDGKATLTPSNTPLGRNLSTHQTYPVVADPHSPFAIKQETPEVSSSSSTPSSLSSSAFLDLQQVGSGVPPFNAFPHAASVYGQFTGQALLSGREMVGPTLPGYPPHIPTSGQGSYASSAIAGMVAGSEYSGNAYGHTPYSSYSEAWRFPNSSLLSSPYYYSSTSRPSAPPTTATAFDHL

cells = assay type: functional
[16] = molecular target: T5, DNA repair protein RAD52 homolog (Homo sapiens, UniProt P43351); assay type: functional, biochemical
T5 sequence (P43351 whole entry): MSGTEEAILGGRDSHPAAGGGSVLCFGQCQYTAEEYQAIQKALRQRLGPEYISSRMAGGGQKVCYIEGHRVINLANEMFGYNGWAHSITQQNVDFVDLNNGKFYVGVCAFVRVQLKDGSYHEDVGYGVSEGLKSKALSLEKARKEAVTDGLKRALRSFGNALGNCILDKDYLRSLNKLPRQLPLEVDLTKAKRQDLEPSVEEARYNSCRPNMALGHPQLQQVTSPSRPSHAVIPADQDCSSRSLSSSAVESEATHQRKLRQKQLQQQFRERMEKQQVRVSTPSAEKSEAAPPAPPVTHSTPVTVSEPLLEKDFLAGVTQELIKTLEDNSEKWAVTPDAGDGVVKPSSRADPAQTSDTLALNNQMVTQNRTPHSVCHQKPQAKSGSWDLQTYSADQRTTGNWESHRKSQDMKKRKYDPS

[17] = Luminescence Cell-Based Dose Retest to Confirm Inhibitors of Cancer Stem Cells. [Related pubchem assays (depositor defined):AID2717, AID2721]; assay type: functional; conditions: Homo sapiens
BJ [18] = experiment: cells; assay type: functional, cell-based; conditions: Homo sapiens
[19] = cytotoxicity toward DRD oncogenic fibroblasts, dose response, cell-based, non-viral oncogenic, luminescence (AID 1934); assay type: functional; conditions: Homo sapiens
[20] = growth suppression of beta-catenin-knockout colon cells, dose response, cell-based, HCT116, human colon tumor (AID 1045); assay type: functional;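 further: HCT116 colon tumor cells with beta catenin knocked out; cells exposed to compound for 60 hours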
BJ [21] = experiment: cytotoxicity toward BJ-TERT-LT-ST fibroblasts, dose response, cell-based, RAS-independent, luminescence (AID 1935); assay type: functional; conditions: Homo sapiens;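 further: BJ fibroblasts immortalized with TERT plus LT and ST oncogenes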
BJ [22] = experiment: cytotoxicity toward BJ-TERT fibroblasts, dose response, cell-based, RAS-independent, luminescence (AID 1933); assay type: functional; conditions: Homo sapiens
[23] = growth suppression of PTEN-null colon cells, dose response, cell-based, HCT116 PTEN knockout (AID 1047); assay type: functional;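 further: HCT116 colon tumor cells with PTEN knocked out; cells exposed to compound for 60 hours before readout; potency for loss of cell viability measured by luminescence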

With `CCOC(=O)c1[nH]c2ccc(F)cc2c1NC(=O)CN1CCN(C/C=C/c2ccccc2)CC1` the CC50 [1] was 22.4 µM (active) and the CC50 [2] was 8.01 µM (active).
With `COCCCNC(=S)NNC(=O)c1ccccn1` the AC50 [3] was 24.1 µM (active), the IC50 (Nonstructural protein 1) was 2.32 µM (active) and the IC50 [4] was > 20 µM (inactive).
In the case of `Cc1ccccc1NC(=O)c1c(F)c(F)c(F)c(F)c1F`, the AC50 [3] is reported as 29.3 µM (active).
For `O=C(O)C1C2C=CC(C2)C1C(=O)Nc1ccccc1Br` (centres undefined), the AC50 (Caspase-6) was 6.78 µM (active) and the IC50 [5] was 16.7 µM (active).
For `COc1ccc(OC)c2sc(NC(=O)C3COc4ccccc4O3)nc12` (centres undefined), the EC50 [6] was 78 µM (active).
For `CCCCCCNC(=O)O[C@H]1Cn2c(=O)ccc(=O)n2[C@@H]2CN(S(=O)(=O)c3ccc(C)cc3)C[C@]12O`, the AC50 [7] was 19.1 µM (active), the AC50 [8] was 31.5 µM (active) and the CC50 (Vero) was 24 µM (active). For the same compound, the AC50 [9] was 14.1 µM (active).
With `CC[C@@]1(C(=O)OC)N[C@H](CN(C)S(=O)(=O)c2ccc(-c3ccccc3)cc2)[C@@H]2C(=O)N(Cc3ccccc3)C(=O)[C@@H]21` the AC50 [10] was 2.28 µM (active), the AC50 [11] was 2.61 µM (active) and the AC50 [12] was 2.09 µM (active). The AC50 [13] was 2.54 µM (active).
For `C[C@@H]1CN([C@@H](C)CO)C(=O)Cc2cc(NC(=O)Nc3ccc(F)cc3)ccc2O[C@H]1CN(C)CC1CCCCC1`, the AC50 [14] was 10.9 µM (active), the AC50 [15] was 7.86 µM (active) and the AC50 (Paired box protein Pax-8) was 20.4 µM (active).
For `O=C(N/N=C/c1ccc(OC(=O)c2cccs2)cc1)c1ccccn1`, the IC50 (cells) was 5.37 µM (active).
In the case of `O=C(N/N=C/c1ccc[nH]1)c1ccncc1`, the IC50 (cells) is reported as 2.28 µM (active).
In the case of `O=C(C1CCCC1)N1C[C@@H]2N[C@H](C1)[C@@H]2c1ccc(/C=C/c2ccccc2)cc1`, the AC50 [14] is reported as 7.79 µM (active) and the AC50 [15] is reported as 4.23 µM (active).
For `Cc1cc2nc(NC(=N)N)nc(C)c2cc1C`, the AC50 [16] was 3.41 µM (active).
With `COc1ccc(C2=Nn3c(nnc3-c3ccccc3F)SC2)cc1OC1CCCC1` the CC50 [1] was 9.04 µM (active), the AC50 [17] was 6.06 µM (active) and the IC50 [4] was > 20 µM (inactive).
With `C[C@@]1(CO)[C@H](O)CC[C@@]2(C)[C@H]1CC[C@H]1C[C@@H]3C[C@@]12CC[C@]3(O)CO` [APHIDICOLIN] the EC50 (BJ [18]) was 28.6 µM (active), the EC50 [19] was > 150 µM (inconclusive) and the EC50 [20] was 1.73 µM (active). For the same compound, the EC50 (BJ [21]) was > 150 µM (not active), the EC50 (BJ [22]) was 38.6 µM (active) and the EC50 [23] was 0.839 µM (active).
